From ChEMBL document CHEMBL3885861, “Open TG-GATES”

Species on record: Rattus norvegicus
Assay: Open TG-GATES - Regimen: Single
Assay type: toxicity, organism-based, Sprague-Dawley
Parameters: regimen Single, gender Male, age 6 weeks
Conditions: in vivo, po, 100 mg/kg, route gavage, dose level Low; for APTT / Bas / Eos / Fbg / Hb / Ht / Lym / MCH / MCHC / MCV / Mono / Neu / PT / Plat / RBC / Ret / WBC: tissue Blood; for KIDNEY_L / KIDNEY_R / KIDNEY_TOTAL: tissue Kidney; for LIVER: tissue Liver; for A/G / ALP / ALT / AST / BUN / CRE / Ca / Cl / DBIL / GLC / IP / K / LDH / Na / PL / RALB / TBIL / TC / TG / TP / gamma-GTP: tissue Plasma

Compound: CC(S)C(=O)NCC(=O)O (configuration not stated) [TIOPRONIN]
- TERMINAL_BW (3 h): 208 g
- APTT (3 h): 22.4 s
- Bas (3 h): 0%
- Eos (3 h): 0.6%
- Fbg (3 h): 295.6 mg/dL
- Hb (3 h): 13 g/dL
- Ht (3 h): 39.9%
- Lym (3 h): 79.2%
- MCH (3 h): 20 pg
- MCHC (3 h): 32.6%
- MCV (3 h): 61.6 fL
- Mono (3 h): 2.4%
- Neu (3 h): 16.8%
- PT (3 h): 16.5 s
- Plat (3 h): 113.3 x10_4/uL
- RBC (3 h): 649.2 x10_4/ul
- Ret (3 h): 7.6%
- WBC (3 h): 73.6 x10_2/uL
- KIDNEY_L (3 h): 0.9 g
- KIDNEY_R (3 h): 0.9 g
- KIDNEY_TOTAL (3 h): 1.8 g
- LIVER (3 h): 9 g
- A/G (3 h): 1.2
- ALP (3 h): 1568.4 IU/L
- ALT (3 h): 48.2 IU/L
- AST (3 h): 75.8 IU/L
- BUN (3 h): 10.2 mg/dL
- CRE (3 h): 0.1 mg/dL
- Ca (3 h): 10.7 mg/dL
- Cl (3 h): 106.8 meq/L
- DBIL (3 h): 0 mg/dL
- GLC (3 h): 185.6 mg/dL
- IP (3 h): 8.6 mg/dL
- K (3 h): 4.1 meq/L
- LDH (3 h): 172.8 IU/L
- Na (3 h): 142.8 meq/L
- PL (3 h): 117.6 mg/dL
- RALB (3 h): 2.9 g/dL
- TBIL (3 h): 0.02 mg/dL
- TC (3 h): 68.6 mg/dL
- TG (3 h): 49.6 mg/dL
- TP (3 h): 5.4 g/dL
- gamma-GTP (3 h): 1.8 IU/L
- TERMINAL_BW (6 h): 205.7 g
- APTT (6 h): 22.4 s
- Bas (6 h): 0%
- Eos (6 h): 1%
- Fbg (6 h): 301.8 mg/dL
- Hb (6 h): 12.9 g/dL
- Ht (6 h): 39.5%
- Lym (6 h): 75.8%
- MCH (6 h): 20.1 pg
- MCHC (6 h): 32.6%
- MCV (6 h): 61.6 fL
- Mono (6 h): 2.6%
- Neu (6 h): 20.2%
- PT (6 h): 16 s
- Plat (6 h): 118.6 x10_4/uL
- RBC (6 h): 641.6 x10_4/ul
- Ret (6 h): 7.7%
- WBC (6 h): 93.1 x10_2/uL
- KIDNEY_L (6 h): 0.9 g
- KIDNEY_R (6 h): 0.9 g
- KIDNEY_TOTAL (6 h): 1.9 g
- LIVER (6 h): 8.8 g
- A/G (6 h): 1.2
- ALP (6 h): 1456.8 IU/L
- ALT (6 h): 39.6 IU/L
- AST (6 h): 70.8 IU/L
- BUN (6 h): 8.4 mg/dL
- CRE (6 h): 0.1 mg/dL
- Ca (6 h): 10.6 mg/dL
- Cl (6 h): 105.8 meq/L
- DBIL (6 h): 0 mg/dL
- GLC (6 h): 185.2 mg/dL
- IP (6 h): 9.8 mg/dL
- K (6 h): 4.3 meq/L
- LDH (6 h): 154.6 IU/L
- Na (6 h): 144 meq/L
- PL (6 h): 125.6 mg/dL
- RALB (6 h): 2.9 g/dL
- TBIL (6 h): 0.018 mg/dL
- TC (6 h): 76.4 mg/dL
- TG (6 h): 50.8 mg/dL
- TP (6 h): 5.4 g/dL
- gamma-GTP (6 h): 2 IU/L
- TERMINAL_BW (9 h): 205.8 g
- APTT (9 h): 22.6 s
- Bas (9 h): 0%
- Eos (9 h): 0.2%
- Fbg (9 h): 291.8 mg/dL
- Hb (9 h): 12.5 g/dL
- Ht (9 h): 39.1%
- Lym (9 h): 80.6%
- MCH (9 h): 20.4 pg
- MCHC (9 h): 32%
- MCV (9 h): 63.7 fL
- Mono (9 h): 1.8%
- Neu (9 h): 16.2%
- PT (9 h): 16.4 s
- Plat (9 h): 114 x10_4/uL
- RBC (9 h): 614.2 x10_4/ul
- Ret (9 h): 8.3%
- WBC (9 h): 72.6 x10_2/uL
- KIDNEY_L (9 h): 0.9 g
- KIDNEY_R (9 h): 0.9 g
- KIDNEY_TOTAL (9 h): 1.8 g
- LIVER (9 h): 8.5 g
- A/G (9 h): 1.1
- ALP (9 h): 1275.6 IU/L
- ALT (9 h): 39.2 IU/L
- AST (9 h): 70.2 IU/L
- BUN (9 h): 12.8 mg/dL
- CRE (9 h): 0.1 mg/dL
- Ca (9 h): 10.6 mg/dL
- Cl (9 h): 106.4 meq/L
- DBIL (9 h): 0.002 mg/dL
- GLC (9 h): 190.2 mg/dL
- IP (9 h): 9.5 mg/dL
- K (9 h): 4.2 meq/L
- LDH (9 h): 142.8 IU/L
- Na (9 h): 143.8 meq/L
- PL (9 h): 119.6 mg/dL
- RALB (9 h): 2.8 g/dL
- TBIL (9 h): 0.01 mg/dL
- TC (9 h): 68.8 mg/dL
- TG (9 h): 48.4 mg/dL
- TP (9 h): 5.4 g/dL
- gamma-GTP (9 h): 1.2 IU/L
- TERMINAL_BW (24 h): 222 g
- APTT (24 h): 20.5 s
- Bas (24 h): 0%
- Eos (24 h): 0.8%
- Fbg (24 h): 302.2 mg/dL
- Hb (24 h): 12.9 g/dL
- Ht (24 h): 38.6%
- Lym (24 h): 81.8%
- MCH (24 h): 20.5 pg
- MCHC (24 h): 33.3%
- MCV (24 h): 61.6 fL
- Mono (24 h): 2.6%
- Neu (24 h): 13.8%
- PT (24 h): 16.3 s
- Plat (24 h): 111.9 x10_4/uL
- RBC (24 h): 627.6 x10_4/ul
- Ret (24 h): 7.4%
- WBC (24 h): 75.5 x10_2/uL
- KIDNEY_L (24 h): 1 g
- KIDNEY_R (24 h): 1 g
- KIDNEY_TOTAL (24 h): 1.9 g
- LIVER (24 h): 9.6 g
- A/G (24 h): 1.2
- ALP (24 h): 1761 IU/L
- ALT (24 h): 45.6 IU/L
- AST (24 h): 76.8 IU/L
- BUN (24 h): 15.2 mg/dL
- CRE (24 h): 0.1 mg/dL
- Ca (24 h): 10.8 mg/dL
- Cl (24 h): 106.2 meq/L
- DBIL (24 h): 0 mg/dL
- GLC (24 h): 184.8 mg/dL
- IP (24 h): 7.4 mg/dL
- K (24 h): 4.4 meq/L
- LDH (24 h): 166 IU/L
- Na (24 h): 144.4 meq/L
- PL (24 h): 144 mg/dL
- RALB (24 h): 3 g/dL
- TBIL (24 h): 0.01 mg/dL
- TC (24 h): 82.4 mg/dL
- TG (24 h): 93 mg/dL
- TP (24 h): 5.6 g/dL
- gamma-GTP (24 h): 1.2 IU/L
